Reference: ChEMBL document CHEMBL5104232, “Pyrazolines as potential anti-Alzheimer's agents: DFT, molecular docking, enzyme inhibition and pharmacokinetic studies” (RSC Med Chem, 2022)

What was measured:
Acetylcholinesterase = Acetylcholinesterase (Homo sapiens, UniProt P22303)
Description: Inhibition of human acetylcholinesterase using acetylthiocholine iodide as substrate incubated for 15 mins by Ellman's method

[1] = Apparent permeability of compound across gastrointestinal tract mimic in PBS buffer incubated for 5 hrs by PAMPA assay based HPLC analysis; type: ADME
[2] = Apparent permeability of compound across gastrointestinal tract mimic in PBS buffer as membrane retention incubated for 5 hrs by PAMPA assay based HPLC analysis; type: ADME

Chain of Acetylcholinesterase (P22303 whole entry): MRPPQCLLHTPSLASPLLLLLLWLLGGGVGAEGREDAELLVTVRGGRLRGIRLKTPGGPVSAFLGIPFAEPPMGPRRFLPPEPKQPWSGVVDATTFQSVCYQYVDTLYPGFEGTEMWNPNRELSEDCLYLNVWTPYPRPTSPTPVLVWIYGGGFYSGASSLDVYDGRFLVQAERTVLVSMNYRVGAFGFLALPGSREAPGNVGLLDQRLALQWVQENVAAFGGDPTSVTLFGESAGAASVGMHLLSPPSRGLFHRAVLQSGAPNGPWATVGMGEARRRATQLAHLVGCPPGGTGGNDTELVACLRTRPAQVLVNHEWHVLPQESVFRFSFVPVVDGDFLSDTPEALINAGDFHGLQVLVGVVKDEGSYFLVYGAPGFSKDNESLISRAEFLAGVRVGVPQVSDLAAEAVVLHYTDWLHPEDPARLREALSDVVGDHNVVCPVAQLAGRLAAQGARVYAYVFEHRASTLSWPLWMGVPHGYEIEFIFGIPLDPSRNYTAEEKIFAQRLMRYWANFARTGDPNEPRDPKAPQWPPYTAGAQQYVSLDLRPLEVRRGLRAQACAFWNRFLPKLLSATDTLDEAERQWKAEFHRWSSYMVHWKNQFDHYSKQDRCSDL

Row | Structure (SMILES) | IC50 (Acetylcholinesterase) [µM] | Papp at 5 h [1] [×10⁻⁶ cm/s] | Activity [2] [%]
1 | COc1ccc(C2CC(c3ccc(-c4ccccc4)cc3)=NN2C(C)=O)cc1OC (centres undefined) | 1430 | 9.02 | 9.2
2 | CC(=O)N1N=C(c2ccc(-c3ccccc3)cc2)CC1c1ccccc1 (centres undefined) | 1330 | 9.15 | 30.7
3 | CC(=O)N1N=C(c2ccc(-c3ccccc3)cc2)CC1c1ccc(C(=O)O)cc1 (centres undefined) | 1540 | 2.13 | 15
4 | CC(=O)N1N=C(c2ccc(-c3ccccc3)cc2)CC1c1cccc([N+](=O)[O-])c1 (centres undefined) | 1030 | 9.42 | 27.7
5 | CC(=O)N1N=C(c2ccc(Br)cc2)CC1c1ccc(-c2ccccc2)cc1 (centres undefined) | 0.903 | 4.9 | 49
6 | CC(=O)N1N=C(c2ccc(-c3ccccc3)cc2)CC1c1ccccc1[N+](=O)[O-] (centres undefined) | 0.64 | 6.9 | 47.6
7 | CC(=O)N1N=C(c2ccc(-c3ccccc3)cc2)CC1c1ccc([N+](=O)[O-])cc1 (centres undefined) | 1560 | 7.85 | 32.6
8 | COc1ccc(C2=NN(C(C)=O)C(c3ccc(-c4ccccc4)cc3)C2)c(OC)c1 (centres undefined) | 1130 | 1 | 18.4
9 | COc1cc(C2=NN(C(C)=O)C(c3ccc(-c4ccccc4)cc3)C2)cc(OC)c1OC (centres undefined) | 1950 | 7.89 | 9.5
10 | CC(=O)N1N=C(c2ccc3c(c2)OCO3)CC1c1ccc(-c2ccccc2)cc1 (centres undefined) | 0.913 | 8.44 | 17
11 | CC(=O)N1N=C(c2cccc3ccccc23)CC1c1ccc(-c2ccccc2)cc1 (centres undefined) | 1010 | 5.47 | 35.8
12 | CC(=O)N1N=C(c2ccc3ccccc3c2)CC1c1ccc(-c2ccccc2)cc1 (centres undefined) | 0.068 | 4.43 | 56.9
13 | CC(=O)N1N=C(c2ccc(-c3ccccc3)cc2)CC1c1ccc2c(c1)OCO2 (centres undefined) | 0.988 | 8.75 | 33.7
14 | CC(=O)N1N=C(c2ccc(C)cc2)CC1c1ccc(-c2ccccc2)cc1 (centres undefined) | 0.845 | 4.27 | 44.3
15 | CC(=O)N1N=C(c2ccccc2[N+](=O)[O-])CC1c1ccc(-c2ccccc2)cc1 (centres undefined) | 0.052 | 1.22 | 6.6
16 | COc1ccc(OC)c(C2=NN(C(C)=O)C(c3ccc(-c4ccccc4)cc3)C2)c1 (centres undefined) | 1700 | 6.87 | 36.2
17 | CC(=O)N1N=C(c2ccc(-c3ccccc3)cc2)CC1c1ccc2ccccc2c1 (centres undefined) | 0.799 | 3.36 | 59.7
18 | COc1ccc(OC)c(C2CC(c3ccc(-c4ccccc4)cc3)=NN2C(C)=O)c1 (centres undefined) | 1420 | 6.94 | 38.3
